Entries after “also recorded” stand apart in the source; their conditions may differ.
assay: Wetting test of solvent systems on tanned rabbit pelt; format: physicochemical; details: about 1 mL solvent without active ingredient, dropwise, pelt at about 45°
Procedure: To determine organic solvents that are useful spreading agents, solvent systems that are capable of solubilizing at least 1% spinosad by weight percent were screened for hair wetting by applying about 1 mL of the solvent system (solvents were screened without active ingredient), dropwise, to a tanned rabbit pelt that was at an angle of about 45°. […]

SMILES | Ability to wet rabbit hair
CN1CCCC1=O [N-methyl pyrrolidone] | Did Not Wet
CCCCCCCC/C=C\CCCCCCCC(=O)OC [methyl oleate] | Wet Well
C=C(C)[C@H]1CC=C(C)CC1 [limonene] | Wet Well
CCCCCCCC(=O)O [octanoic acid] | Wet Well
CCCCOC(=O)C(C)O (stereo not shown) [butyl lactate] | Wet Well
CCCCCCCCCCCC(=O)OC [methyl laurate] | Wet Well
CC(O)CO (stereo not shown) [propylene glycol] | Did Not Wet
CC(=O)OCC(COC(C)=O)OC(C)=O [triacetin] | Did Not Wet
CCCCCCCC/C=C\CCCCCCCC(=O)OCC [ethyl oleate] | Wet Well
COC(C)COC(C)CO (stereo not shown) [dipropylene glycol methyl ether] | wet the hair very well; also recorded: Wet Well
CCCCCCCCCCCCCC(=O)OC(C)C [isopropyl myristate] | Wet Well
CCCCCCCCCC(=O)OC [methyl caprate] | Wet Well
CCCCCCO [hexanol] | Wet Well

Reference: patent US6933318B1, “Topical organic ectoparasiticidal formulations” (Eli Lilly and Company, priority 1999, dated 2005)
